Literature values as cited in patent EP1379546B1, “PEPTIDE FOR THE DIAGNOSIS AND THERAPY OF ALZHEIMER'S DISEASE” (Leibniz-Institut für Altersforschung - …, priority 2001, dated 2002).

Target: Aβ (Homo sapiens, UniProt P05067)
Settings: inhibition of Aβ fibril formation and anticytotoxic effect, reported in Tomiyama et al., J. Biol. Chem. 1996

Aβ, sequence (P05067 672-711 limits assumed): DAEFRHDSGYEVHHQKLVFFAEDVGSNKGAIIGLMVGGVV

SMILES | Dissoziationskonstante
CCCCCCCCCCCCCCCC[N+]1(C)CCCCC1.[Br-] [Hexadecyl-N-methylpiperidiniumbromid] | µM- bis mM-Bereich
CO[C@H]1/C=C/O[C@@]2(C)Oc3c(C)c(O)c4c(O)c(c(/C=N/N5CCN(C)CC5)c(O)c4c3C2=O)NC(=O)/C(C)=C\C=C\[C@H](C)[C@H](O)[C@@H](C)[C@@H](O)[C@@H](C)[C@H](OC(C)=O)[C@@H]1C [Rifampicin] | µM- bis mM-Bereich
